Where a name gives a salt, the structure may show the parent alone.
Assays:
NPM1 = target: T1, NPM1 (Homo sapiens, UniProt P06748); test: In-situ labeling and enrichment of NPM1 in HEK293T cells (MS-MS, Western); assay type: cell-based
T1 construct: endogenous in cells; host or cells: HEK293T
Description: Cell culture and in-situ tryptophan probe treatment: Cell lines were cultured at 37° C. with 5% C02. Human embryonic kidney 293 cells expressing a mutant version of the SV40 large T antigen (HEKT293T cells) were grown in Dulbecco's Modified Eagle Medium (DMEM, Gibco) supplemented with 10% fetal bovine serum and 1% penicillin/streptomycin. For in-situ labeling, cells were grown to 90% confluence, washed with Dulbecco's phosphate buffered saline (DPBS), treated with 100x stocks of the tryptophan probes (the pyridinium salts) in OptiMem (GibCo) to generate final concentrations (0 μM, 1 μM, 10 μM, and 100 μM) in 1% dimethylsulfoxide (DMSO). Cells were incubated for 1 hour at 37° C. with 5% C02 followed by photo-activation at the respective wavelengths for 20 minutes at 4° C. Cells were harvested with a cell scraper, washed 3× with DPBS, and pellets were stored at −80° C. until further use. […]
In-situ tryptophan probe sample processing for peptide-level characterization: Cell pellets were lysed via sonication (QSonica) at 50% amplitude, 2 seconds ON, 3 seconds OFF, 30 seconds in 40 mM HEPES pH 7.5 (4-(2-hydroxyethyl)-1-piperazineethanesulfonic acid), 1.5 mM magnesium chloride (MgCl2), 1% Sodium dodecyl sulfate (SDS), 0.8% NP-40 (also known as nonyl phenoxypolyethoxylethanol), and 1x protease inhibitors (Thermo). Protein concentration was determined by BCA (Pierce). […]
In-situ tryptophan probe sample processing for protein-level identification: Cell pellets were lysed via sonication (QSonica) at 50% amplitude, 2 seconds ON, 3 seconds OFF, 30 seconds in 50 mM HEPES pH 7.5, 1.5 mM MgCl2, 1% SDS, 0.8% NP-40, and 1x protease inhibitors (Thermo). Protein concentration was determined by BCA (Pierce). […]

HEK293T cells = test: In-situ chemoproteomic tryptophan profiling of live HEK293T cells (peptide-level enrichment); assay type: cell-based, Human
Description: Cell culture and in-situ tryptophan probe treatment: Cell lines were cultured at 37° C. with 5% C02. Human embryonic kidney 293 cells expressing a mutant version of the SV40 large T antigen (HEKT293T cells) were grown in Dulbecco's Modified Eagle Medium (DMEM, Gibco) supplemented with 10% fetal bovine serum and 1% penicillin/streptomycin. For in-situ labeling, cells were grown to 90% confluence, washed with Dulbecco's phosphate buffered saline (DPBS), treated with 100x stocks of the tryptophan probes (the pyridinium salts) in OptiMem (GibCo) to generate final concentrations (0 μM, 1 μM, 10 μM, and 100 μM) in 1% dimethylsulfoxide (DMSO). Cells were incubated for 1 hour at 37° C. with 5% C02 followed by photo-activation at the respective wavelengths for 20 minutes at 4° C. Cells were harvested with a cell scraper, washed 3× with DPBS, and pellets were stored at −80° C. until further use. The following light sources were used for photo-activation: • Pyridinium salt 1a (also called, probe 1a): wavelength=302 nm; light source=Analytikjena, UVP 3UV Lamp, 8W. • Pyridinium salt 1b (also called, probe 1b): wavelength=320 nm; light source=Analytikjena, UVP 3UV Lamp, 8W, equipped with 320 nm long-pass filter. • Pyridinium salt 2b (also called, probe 2b): wavelength=440 nm; light source=Kessil PR-160L-440 nm LED, 45W. • Pyridinium salt 2d (also called, probe 2d): wavelength=440 nm; light source=Kessil PR-160L-440 nm LED, 45W.
In-situ tryptophan probe sample processing for peptide-level characterization: Cell pellets were lysed via sonication (QSonica) at 50% amplitude, 2 seconds ON, 3 seconds OFF, 30 seconds in 40 mM HEPES pH 7.5 (4-(2-hydroxyethyl)-1-piperazineethanesulfonic acid), 1.5 mM magnesium chloride (MgCl2), 1% Sodium dodecyl sulfate (SDS), 0.8% NP-40 (also known as nonyl phenoxypolyethoxylethanol), and 1x protease inhibitors (Thermo). Protein concentration was determined by BCA (Pierce). 400 μg protein lysate were taken for copper-catalyzed azide-alkyne cycloaddition (CuAAC) reactions with 100 μM of the acid cleavable DAPBS Biotin Alkyne (Click Chemistry Tools), 250 μM copper sulfate (CuSO4), 500 μM BTTP (C20H34N10O2) (Click Chemistry Tools), and 2.5 mM ascorbate and incubated for 60 minutes at R.T. Samples were precipitated with methanol:chloroform and re-suspended in 50 mM HEPES pH 8.0 containing 1% RapiGest SF (Waters). The samples were reduced with 10 mM dithiothreitol (DTT) (Pierce) and alkylated with 25 mM iodoacetamide (Pierce). The samples were diluted down to 0.1% RapiGest SF and treated with 4 μg Trypsin/LysC (Promega) at 37° C. for 16 hours. The digested peptides were than labeled with isobaric tandem mass tag (TMT) reagents (Thermo) as specified by the manufacturer. The labeled peptides were then combined, concentrated to remove acetonitrile, and re-suspended in 50 mM HEPES pH 8.0 containing 0.2% SDS. The labeled peptides were then treated with 100 μL Neutravidin resin as a 50% slurry (Peirce) for 16 hours at R.T. The following day, the Neutravidin resin was washed extensively with 50 mM HEPES pH 8.0 containing 0.2% SDS (3×), 50 mM HEPES pH 8.0 (5x), and double-distilled water (ddH2O) (5×). The bound peptides were then cleaved from the resin by incubating with 100 μL 10% formic acid for 30 minutes (2×).
Quantitative proteomics by two-dimensional nano liquid chromatography-tandem mass spectrometry (nLC-MS/MS): For protein-level characterization, the TMT-labeled sample were reconstituted in 0.1% formic acid (FA)/2% acetonitrile for offline high-pH reversed phase separation (RP10) using a Dionex UltiMate 3000 high-performance liquid chromatography (HPLC) system with fraction collection using Chromeleon v.6.8 (Thermo) software. Separation was achieved on a Waters Xbridge C18 3.5 μm 2.1×150 mm HPLC column (Waters) using a flow rate of 250 μL min-1 and the following ternary gradient and conditions: mobile phase A=water (HPLC grade), mobile phase B=acetonitrile (HPLC grade), and mobile phase C=200 mM ammonium acetate, pH 10. […]

[1] = chemoproteomic profiling, HEK293T cells
[2] = about 100 μM probe, 60 min 37° C., 440 nm 20 min 4° C.

T1 sequence (P06748 whole entry): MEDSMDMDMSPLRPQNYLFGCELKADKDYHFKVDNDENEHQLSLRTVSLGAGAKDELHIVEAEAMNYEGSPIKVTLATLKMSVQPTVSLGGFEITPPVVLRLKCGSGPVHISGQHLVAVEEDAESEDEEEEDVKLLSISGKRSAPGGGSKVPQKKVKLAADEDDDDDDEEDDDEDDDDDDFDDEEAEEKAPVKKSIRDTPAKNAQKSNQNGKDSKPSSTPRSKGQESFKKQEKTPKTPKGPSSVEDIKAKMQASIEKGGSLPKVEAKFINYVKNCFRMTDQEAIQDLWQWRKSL

in-situ labeled tryptophan residue (NPM1; [1]): Trp290 | labeling of Trp288 (NPM1; [1]): not labeled | NPM1 in enriched protein mixture (Western analysis) (NPM1; cultures irradiated with blue light in the presence of probe, protein-level enrichment): found to contain both proteins | plasma membrane permeation (HEK293T cells; inferred from subcellular localization of labeled proteins): readily crosses the plasma membrane | thermal stability under whole cell culture conditions (HEK293T cells; no peptide enrichment without 440 nm photoirradiation): robust thermal stability
Structure (SMILES): COc1ccc2cc(-c3cc(C)[n+](N(C)C(=O)OCCCCCCN=[N+]=[N-])c(C)c3)ccc2c1 [Pyridinium salt 2d, 1-((((6-azidohexyl)oxy)carbonyl)(methyl)amino)-4-(6-methoxynaphthalen-2-yl)-2,6-dimethylpyridin-1-ium tetrafluoroborate]
probe concentration giving measurable two-fold enrichment of Trp-modified peptides (HEK293T cells; 440 nm photoirradiation): about 10 μM | number of Trp-modified peptide fragments showing dose-response behavior (HEK293T cells; [2]): 290 | number of unique proteins corresponding to Trp-modified peptide fragments (HEK293T cells; [2]): 209 | number of unique peptides harboring a tryptophan modification (HEK293T cells; chemoselectivity profile, in situ): 221 | selectivity for tryptophan, relative amino acid frequency taken into account (HEK293T cells; versus His, Tyr, Cys modifications, in situ): about 82%

Reference: patent publication US20240262844A1, “PYRIDINIUM SALTS AND METHODS OF USE” (UNIVERSITY OF WYOMING, priority 2023, published 2024)
